# Test results reported in patent US20140178411A1, “COMPOUNDS AND METHODS FOR THE TREATMENT OF CD20 POSITIVE DISEASES” (BIO-THERA SOLUTIONS, LTD., CO., priority 2012, published 2014).
# Columns and labels:
# tubulin = conditions: 10 μL added to 100 μL 4 mg/ml tubulin, FIG. 1
# Procedure: The effect of 3AA-MDC and related metabolites on the tubulin polymerization in vitro was assessed by HTS-Tubulin Polymerization Assay Kit (BK004P, Cytoskeleton, Inc., USA). According to the instruction of kit, pre-warm the 96-well plate to 37° C. for 30 min prior to starting the assay. At the same time, the spectrophotometer (SpectraMax, Molecular Devices, USA) was set as follow: wavelength, 405 nm; temperature, 37° C.; Kinetic, 31 cycles of 1 reading per minute. Make cold G-PEM buffer (990 μL General Tubulin Buffer+10 μL GTP Stock) and keep it on ice. Prepare 4 mg/ml tubulin, 200 nM L-3AA-MDC (N2′-deacetyl-N2′-(6-maleimido-1-oxo-hexyl)maytansine), or related compounds cys-3AA-MDC, or lys-mcc-MDC, 100 μM Paclitaxel, 100 μM Nocodazole, and 1 μM 206-3AA-MDC (3AA-MDC-antibody conjugate). Add 10 μL G-PEM, 3AA-MDC, Paclitaxel, Nocodazole and 206-3AA-MDC or related metabolites into the wells, and then add 100 μL 4 mg/ml tubulin to each well. Immediately place the plate into the spectrophotometer and start recording using the kinetic setup described above.
# [1] = system: human acute lymphoblastic leukemia line C.E.M.; conditions: Wolpert-DeFillippes et al. 1975; cited from earlier work
structure (smiles),measurement,setting,value
"COc1cc2cc(c1Cl)N(C)C(=O)C[C@H](OC(=O)[C@H](C)N(C)C(=O)CCCCCN1C(=O)C=CC1=O)[C@]1(C)OC1[C@H](C)[C@@H]1C[C@@](O)(NC(=O)O1)[C@H](OC)/C=C/C=C(\C)C2 (stereo partly drawn) [L-3AA-MDC, N2′-deacetyl-N2′-(6-maleimido-1-oxo-hexyl)maytansine]",effect on tubulin polymerization (in words),"tubulin; 200 nM stock, compared with Nocodazole",more significantly inhibited the tubulin polymerization
COc1cc2cc(c1Cl)N(C)C(=O)C[C@H](OC(=O)[C@H](C)N(C)C(C)=O)[C@]1(C)O[C@H]1[C@H](C)[C@@H]1C[C@@](O)(NC(=O)O1)[C@H](OC)/C=C/C=C(\C)C2 [Maytansine],concentration that inhibits C.E.M. line (as low as),[1],10^−7 µg/mL
COC(=O)Nc1nc2ccc(C(=O)c3cccs3)cc2[nH]1 [Nocodazole],relative activity of tubulin polymerization decreased,"tubulin; 100 μM Nocodazole stock, 37° C., 405 nm",2.5 fold
CC(=O)O[C@H]1C(=O)[C@@]2(C)[C@H]([C@H](OC(=O)c3ccccc3)[C@]3(O)C[C@H](OC(=O)[C@H](O)[C@@H](NC(=O)c4ccccc4)c4ccccc4)C(C)=C1C3(C)C)[C@]1(OC(C)=O)CO[C@@H]1C[C@@H]2O [Paclitaxel],relative activity of tubulin polymerization enhanced,"tubulin; 100 μM Paclitaxel stock, 37° C., 405 nm",about 3 fold
